Values quoted from earlier work in US20210299077A1, “LIPOSOMAL REDUCED GLUTATHIONE (LRG) IN COMBINATION WITH IVERMECTIN FOR THE TREATMENT OF COVID-19” (Your Energy Systems, LLC, priority 2020, published 2021).
Read-outs that look alike come from different tables or passages of the source.

Tests used:
influenza viruses = details: 300 mg twice a day for 5 days
[1] = patients receiving remdesivir
COVID-19 = COVID-19 patients
SARS-CoV [2] = details: mouse SARS-CoV model
SARS-CoV [3] = details: in vitro studies
[4] = single oral dose of 2000 mg

## CC(=O)Oc1ccccc1C(=O)Nc1ncc([N+](=O)[O-])s1 [NTZ, Nitazoxanide]
Influenza viruses
  symptoms and infectious viral load: reduction of symptoms and infectious viral load
  tolerability: well tolerated

## CCC(CC)COC(=O)[C@H](C)N[P@](=O)(OC[C@H]1O[C@@](C#N)(c2ccc3c(N)ncnn23)[C@H](O)[C@@H]1O)Oc1ccccc1 [Remdesivir]
[1]
  adverse events: nausea, vomiting, rectal bleeding, and elevated liver enzymes

## CCN(CC)CCCC(C)Nc1ccnc2cc(Cl)ccc12 (stereo not shown) [chloroquine]
COVID-19
  clinical and virologic outcome versus a comparison group: clinical and virologic benefit
SARS-CoV [2]
  efficacy in inhibiting viral replication: did not show efficacy

## CCN(CCO)CCCC(C)Nc1ccnc2cc(Cl)ccc12 (stereo not shown) [hydroxychloroquine]
SARS-CoV-2
  in-vitro activity against SARS-CoV-2: relatively higher potency against SARS-CoV-2

## O=C(Nc1ccc([N+](=O)[O-])cc1Cl)c1cc(Cl)ccc1O [niclosamide]
other
  aqueous solubility: limited aqueous solubility
SARS-CoV [3]
  inhibition of SARS-CoV replication: able to inhibit SARS-CoV replication at a micromolar concentration
[4]
  maximum serum concentration: 0.25 to 6.0 µg/mL
[4]; same range in μM
  maximum serum concentration: 0.76 to 18.3 µM
